Tests used:
Assay type in all cases: cell-based
Proteus mirabilis = assay: MIC against Gram-negative bacteria: Proteus mirabilis; details: for MIC (μg/mL) P. mirabilis / MIC: 10 h cultivation at 37° C., P. mirabilis
Outline: (§1)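 MIC = lowest concentration of recombinant protein showing no growth. Test proteins: purified human-derived EGF domain proteins, two-fold dilution series, three wells per concentration; inoculum 5×10^5 CFU/mL in LB; incubation 37° C with shaking at 175 rpm.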

Klebsiella pneumonia = assay: MIC against Gram-negative bacteria: Klebsiella pneumonia; details: for MIC (μg/mL) K. pneumonia / MIC: 10 h cultivation at 37° C., K. pneumonia
Outline: as §1

Pseudomonas aeruginosa = assay: MIC against Gram-negative bacteria: Pseudomonas aeruginosa; details: for MIC (μg/mL) P. aeruginosa / MIC: 10 h cultivation at 37° C., P. aeruginosa
Outline: as §1

Proteus vulgaris = assay: MIC against Gram-negative bacteria: Proteus vulgaris; details: for MIC (μg/mL) P. vulgaris / MIC: 10 h cultivation at 37° C., P. vulgaris
Outline: as §1

Aeromonas hydrophila = assay: MIC against Gram-negative bacteria: Aeromonas hydrophila; details: for MIC (μg/mL) A. hydrophila / MIC: 10 h cultivation at 37° C., A. hydrophila
Outline: as §1

Serratia marcescens = assay: MIC against Gram-negative bacteria: Serratia marcescens; details: for MIC (μg/mL) S. marcescens / MIC: 10 h cultivation at 37° C., S. marcescens
Outline: as §1

E. coli BL21 = assay: MIC against Gram-negative bacteria: E. coli BL21; details: E. coli BL21; for MIC (μg/mL) E. coli BL21 / MIC: 10 h cultivation at 37° C.
Outline: as §1

Citrobacter diversus = assay: MIC against Gram-negative bacteria: Citrobacter diversus; details: for MIC (μg/mL) C. diversus / MIC: 10 h cultivation at 37° C., C. diversus
Outline: as §1

Enterobacter cloacae = assay: MIC against Gram-negative bacteria: Enterobacter cloacae; details: for MIC (μg/mL) E. cloacae / MIC: 10 h cultivation at 37° C., E. cloacae
Outline: as §1

E. coli DH5α = assay: Antibacterial activity: MIC and growth curve against E. coli DH5α in 96-well plate; details: minimal inhibitory concentration against E. coli DH5α; 96-well plate, 5×10^5 CFU/mL, 37° C., judged after 8 h
Outline: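 Log-phase DH5α (OD600 about 0.5, 37° C, 185 rpm in LB) was pelleted, resuspended in fresh LB and seeded at 5×10^5 CFU/mL with recombinant protein at 50, 25 and 12.5 μg/mL (two-fold series), in triplicate. Plates were shaken at 175 rpm, 37° C, and OD600 was read every 30 min. MIC was the lowest concentration with no growth.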

Moraxella catarrhalis = assay: MIC against Gram-negative bacteria: Moraxella catarrhalis; details: for MIC (μg/mL) M. catarrhalis / MIC: 10 h cultivation at 37° C., M. catarrhalis
Outline: as §1

Substance | MIC (μg/mL) P. mirabilis (Proteus mirabilis; 5×10^5 CFU/mL) [µg/mL] | MIC (μg/mL) K. pneumonia (Klebsiella pneumonia; 5×10^5 CFU/mL) [µg/mL] | MIC (μg/mL) P. aeruginosa (Pseudomonas aeruginosa; 5×10^5 CFU/mL) [µg/mL] | MIC (μg/mL) P. vulgaris (Proteus vulgaris; 5×10^5 CFU/mL) [µg/mL] | MIC (μg/mL) A. hydrophila (Aeromonas hydrophila; 5×10^5 CFU/mL) [µg/mL] | MIC (μg/mL) S. marcescens (Serratia marcescens; 5×10^5 CFU/mL) [µg/mL] | MIC (μg/mL) E. coli BL21 (E. coli BL21; 5×10^5 CFU/mL) [µg/mL] | MIC (μg/mL) C. diversus (Citrobacter diversus; 5×10^5 CFU/mL) [µg/mL] | MIC (μg/mL) E. cloacae (Enterobacter cloacae; 5×10^5 CFU/mL) [µg/mL] | MIC (E. coli DH5α) [µg/mL] | MIC (Proteus mirabilis) [µg/mL] | MIC (Klebsiella pneumonia) [µg/mL] | MIC (Pseudomonas aeruginosa) [µg/mL] | MIC (Proteus vulgaris) [µg/mL] | MIC (Aeromonas hydrophila) [µg/mL] | MIC (Serratia marcescens) [µg/mL] | MIC (E. coli BL21) [µg/mL] | MIC (Citrobacter diversus) [µg/mL] | MIC (Enterobacter cloacae) [µg/mL] | MIC (Moraxella catarrhalis) [µg/mL] | other results
PRT831 (DGRHCVRRSPCANRNGSCMHRCQVVRGLARCECHVGYQLAADGKACE; listed as Homo sapiens) | 50 | 25 | 12.5 | 25 | 25 | 12.5 | 25 | 50 | 12.5 | 25 | – | – | – | – | – | – | – | – | – | – | MIC (μg/mL) M. catarrhalis (Moraxella catarrhalis; 5×10^5 CFU/mL): 12.5 µg/mL
PRT806 (FGFQCSQHCDCHNGGQCSPTTGACECEPGYKGPRCQ; listed as Homo sapiens) | 12.5 | 12.5 | 12.5 | 25 | 12.5 | 25 | 25 | 12.5 | 12.5 | 12.5 | – | – | – | – | – | – | – | – | – | – | MIC (μg/mL) M. catarrhalis (Moraxella catarrhalis; 5×10^5 CFU/mL): 25 µg/mL
PRT1022 (DIDECSEQPSVCGSHTICNNHPGTFRCECVEGYQFSDEGTCV; listed as Homo sapiens) | – | – | – | – | – | – | – | – | – | 12.5 | 50 | 25 | 12.5 | 12.5 | 25 | 12.5 | 50 | 50 | 25 | 12.5 | –
PRT958 (DVDECSIGANPCEHLGRCVNTQGSFLCQCGRGYTGPRCE; listed as Homo sapiens) | – | – | – | – | – | – | – | – | – | 50 | 25 | 50 | 25 | 12.5 | 25 | 25 | 12.5 | 12.5 | 25 | 50 | –
PRT1004 (LRPSCADSPCRNRATCQDSPQGPRCLCPTGYTGGSCQ; listed as Homo sapiens) | – | – | – | – | – | – | – | – | – | 50 | 50 | 12.5 | 50 | 25 | 25 | 12.5 | 100 | 12.5 | 50 | 25 | –
PRT1239 (TIPICEGPDACQKDEVCVKPGLCRCKPGFFGAHCS; listed as Homo sapiens) | – | – | – | – | – | – | – | – | – | 25 | – | – | – | – | – | – | – | – | – | – | MIC against P. mirabilis (Proteus mirabilis; Proteus mirabilis, 96-well plate, 5×10^5 CFU/mL, 37° C., 10 h): 25 µg/mL; MIC against K. pneumonia (Klebsiella pneumonia; Klebsiella pneumonia, 96-well plate, 5×10^5 CFU/mL, 37° C., 10 h): 12.5 µg/mL; MIC against P. aeruginosa (Pseudomonas aeruginosa; Pseudomonas aeruginosa, 96-well plate, 5×10^5 CFU/mL, 37° C., 10 h): 50 µg/mL; MIC against P. vulgaris (Proteus vulgaris; Proteus vulgaris, 96-well plate, 5×10^5 CFU/mL, 37° C., 10 h): 50 µg/mL; MIC against A. hydrophila (Aeromonas hydrophila; Aeromonas hydrophila, 96-well plate, 5×10^5 CFU/mL, 37° C., 10 h): 12.5 µg/mL; MIC against S. marcescens (Serratia marcescens; Serratia marcescens, 96-well plate, 5×10^5 CFU/mL, 37° C., 10 h): 25 µg/mL; MIC against E. coli BL21 (E. coli BL21; 96-well plate, 5×10^5 CFU/mL, 37° C., 10 h): 12.5 µg/mL; MIC against C. diversus (Citrobacter diversus; Citrobacter diversus, 96-well plate, 5×10^5 CFU/mL, 37° C., 10 h): 50 µg/mL; MIC against E. cloacae (Enterobacter cloacae; Enterobacter cloacae, 96-well plate, 5×10^5 CFU/mL, 37° C., 10 h): 50 µg/mL; MIC against M. catarrhalis (Moraxella catarrhalis; Moraxella catarrhalis, 96-well plate, 5×10^5 CFU/mL, 37° C., 10 h): 12.5 µg/mL
